Experimental data taken from patent publication US11396502B2, “Substituted heterocyclic derivatives as PI3K inhibitors” (Incyte Corporation, priority 2018, dated 2022).
Where a name gives a salt, the structure may show the parent alone. Read-outs that look alike come from different tables or passages of the source.

Assays:
PI3Kγ (p110γ) = PI3Kγ (p110γ) (Homo sapiens (Human), UniProt P48736); assay: PI3K-γ scintillation proximity assay; format: biochemical; details: recombinant human PI3Kγ 13 nM, 20 μM PIP2, 2 μM ATP, 120 min, room temperature
Excerpt: Example B. PI3K-γ Scintillation Proximity Assay Materials: [γ-^33P]ATP (10 mCi/mL) and Wheat Germ Agglutinin (WGA) YSi SPA Scintillation Beads was purchased from Perkin Elmer (Waltham, Mass.). Lipid kinase substrate, D-myo-Phosphatidylinositol 4,5-bisphosphate (PtdIns(4,5)P2)D (+)-sn-1,2-di-O-octanoylglyceryl, 3-O-phospho linked (PIP2), CAS 204858-53-7, was purchased from Echelon Biosciences (Salt Lake City, Utah). PI3Kγ (p110γ) Recombinant Human Protein was purchased from Life technology (Grand Island, N.Y.). ATP, MgCl2, DTT, EDTA, MOPS and CHAPS were purchased from Sigma Aldrich (St. Louis, Mo.). The kinase reaction was conducted in polystyrene 384-well Greiner Bio-one white plate from Thermo Fisher Scientific in a final volume of 25 μL. Inhibitors were first diluted serially in DMSO and added to the plate wells before the addition of other reaction components. The final concentration of DMSO in the assay was 2%. The PI3Kγ assay was carried out at room temperature in 20 mM MOPS, pH 6.7, 10 mM MgCl2, 5 mM DTT and CHAPS 0.03%. Reactions were initiated by the addition of ATP, the final reaction mixture consisted of 20 μM PIP2, 2 μM ATP, 0.5 μCi [γ-^33P] ATP, 13 nM PI3Kγ. Reactions were incubated for 120 min and terminated by the addition of 40 μL SPA beads suspended in quench buffer: 163 mM potassium phosphate pH 7.8, 20% glycerol, 25 mM EDTA. The final concentration of SPA beads is 1.0 mg/mL. After the plate sealing, plates were shaken overnight at room temperature and centrifuged at 1500 rpm for 10 min, the radioactivity of the product was determined by scintillation counting on Topcount (Perkin-Elmer). IC50 determination was performed by fitting the curve of percent of the solvent control activity versus the log of the inhibitor concentration using the GraphPad Prism 6.0 software.

PI3Kδ (p110δ/p85α) = PI3Kδ (p110δ/p85α) (Homo sapiens (Human), UniProt O00329); assay: PI3Kδ scintillation proximity assay; format: biochemical; details: recombinant human PI3Kδ 3.4 nM, 20 μM PIP2, 2 μM ATP, 120 min, room temperature
Excerpt: Example C. PI3Kδ Scintillation Proximity Assay Materials: [γ-^33P]ATP (10 mCi/mL) and Wheat Germ Agglutinin (WGA) YSi SPA Scintillation Beads was purchased from Perkin Elmer (Waltham, Mass.). Lipid kinase substrate, D-myo-Phosphatidylinositol 4,5-bisphosphate (PtdIns(4,5)P2)D (+)-sn-1,2-di-O-octanoylglyceryl, 3-O-phospho linked (PIP2), CAS 204858-53-7, was purchased from Echelon Biosciences (Salt Lake City, Utah). PI3Kδ (p110δ/p85α) Recombinant Human Protein was purchased from Eurofins (St Charles, Mo.). ATP, MgCl2, DTT, EDTA, MOPS and CHAPS were purchased from Sigma Aldrich (St. Louis, Mo.). The kinase reaction was conducted in polystyrene 384-well Greiner Bio-one white plate from Thermo Fisher Scientific in a final volume of 25 μL. Inhibitors were first diluted serially in DMSO and added to the plate wells before the addition of other reaction components. The final concentration of DMSO in the assay was 2%. The PI3Kδ assay was carried out at room temperature in 20 mM MOPS, pH 6.7, 10 mM MgCl2, 5 mM DTT and CHAPS 0.03%. Reactions were initiated by the addition of ATP, the final reaction mixture consisted of 20 μM PIP2, 2 μM ATP, 0.5 μCi [γ-^33P] ATP, 3.4 nM PI3Kδ. Reactions were incubated for 120 min and terminated by the addition of 40 μL SPA beads suspended in quench buffer: 163 mM potassium phosphate pH 7.8, 20% glycerol, 25 mM EDTA. The final concentration of SPA beads is 1.0 mg/mL. After the plate sealing, plates were shaken overnight at room temperature and centrifuged at 1500 rpm for 10 min, the radioactivity of the product was determined by scintillation counting on Topcount (PerkinElmer). IC50 determination was performed by fitting the curve of percent of the solvent control activity versus the log of the inhibitor concentration using the GraphPad Prism 6.0 software.

[1] = system: Phosphorylated Ribosomal Protein S6 (RPS6) in THP-1 cells; assay: THP-1 RPS6 ELISA assay; format: cell-based, Human; details: Homo sapiens
Procedure: Example A. THP-1 RPS6 ELISA Assay
To measure the Phosphorylated Ribosomal Protein S6 (RPS6) in cell lysates, THP-1 cells (Human Acute Monocytic Leukemia) are purchased from ATCC (Manassas, Va.) and maintained in RPMI with 10% FBS (Gibco/Life Technologies, Carlsbad, Calif.). For the assay, THP-1 cells are serum starved overnight in RPMI, then plated in RPMI (2×10^5 cells/well in 90 μL) into 96-well flat-bottom tissue culture treated plates (Corning, Corning, N.Y.), in the presence or absence of a concentration range of test compounds. Covered plates are incubated for 2 hours at 37° C., 5% CO2 then treated with or without 10 nM MCP-1 (MYBioSource, San Diego, Calif.) for 15 minutes at 37° C., 5% CO2. Plates are centrifuged at 1600 RPM and supernatants are removed. Cells are lysed in Lysis Buffer (Cell Signaling, Danvers, Mass.) with Protease Inhibitor (Calbiochem/EMD, Germany), PMSF (Sigma, St Louis Mo.), HALTS (Thermo Fisher, Rockford, Ill.) for 30 min on wet ice. Cell lysates are frozen at −80° C. before testing. The lysates are tested in the Human/Mouse/Rat Phospho-RPS6 ELISA (R&D Systems, Inc. Minn, Minn.). The plate is measured using a microplate reader (SpectraMax M5—Molecular Devices, LLC Sunnyvale, Calif.) set to 450 nm with a wavelength correction of 540. IC50 determination is performed by fitting the curve of inhibitor percent inhibition versus the log of the inhibitor concentration using the GraphPad Prism 5.0 software.

[2] = THP-1, serum starved THP-1 cells, 2 hours compound, 10 nM MCP-1 for 15 minutes, Phospho-RPS6 ELISA, read-out: PI3Kγ_THP1_RPS6_ELISA IC50

Chain of PI3Kδ (p110δ/p85α) (O00329 whole entry): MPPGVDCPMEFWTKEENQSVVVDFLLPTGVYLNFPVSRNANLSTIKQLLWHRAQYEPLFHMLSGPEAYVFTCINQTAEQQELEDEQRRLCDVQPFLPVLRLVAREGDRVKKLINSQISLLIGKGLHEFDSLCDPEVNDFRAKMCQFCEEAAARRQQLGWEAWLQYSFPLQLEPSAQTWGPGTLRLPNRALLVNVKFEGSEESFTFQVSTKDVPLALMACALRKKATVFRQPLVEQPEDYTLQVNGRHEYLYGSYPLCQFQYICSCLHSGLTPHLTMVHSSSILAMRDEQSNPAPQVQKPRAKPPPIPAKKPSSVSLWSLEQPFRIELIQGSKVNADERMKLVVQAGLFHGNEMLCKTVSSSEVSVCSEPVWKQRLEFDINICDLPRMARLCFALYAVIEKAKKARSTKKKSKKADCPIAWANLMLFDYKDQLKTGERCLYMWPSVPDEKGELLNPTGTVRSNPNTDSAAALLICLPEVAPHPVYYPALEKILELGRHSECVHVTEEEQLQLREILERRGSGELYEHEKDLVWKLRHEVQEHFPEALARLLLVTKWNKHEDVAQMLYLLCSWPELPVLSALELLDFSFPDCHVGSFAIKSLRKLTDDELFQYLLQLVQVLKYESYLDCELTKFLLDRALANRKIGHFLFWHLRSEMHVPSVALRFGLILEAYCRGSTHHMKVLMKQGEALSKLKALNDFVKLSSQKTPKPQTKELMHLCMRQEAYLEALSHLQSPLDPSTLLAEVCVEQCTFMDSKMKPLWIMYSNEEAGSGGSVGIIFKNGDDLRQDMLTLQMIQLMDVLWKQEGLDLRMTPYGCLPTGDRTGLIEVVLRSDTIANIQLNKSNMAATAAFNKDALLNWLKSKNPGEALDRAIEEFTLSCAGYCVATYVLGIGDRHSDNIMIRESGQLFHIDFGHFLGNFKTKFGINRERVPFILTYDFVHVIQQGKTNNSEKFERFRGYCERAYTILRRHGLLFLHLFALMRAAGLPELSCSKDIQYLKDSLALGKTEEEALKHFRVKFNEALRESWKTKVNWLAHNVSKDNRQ
Chain of PI3Kδ (p110δ/p85α) (P27986 whole entry partner): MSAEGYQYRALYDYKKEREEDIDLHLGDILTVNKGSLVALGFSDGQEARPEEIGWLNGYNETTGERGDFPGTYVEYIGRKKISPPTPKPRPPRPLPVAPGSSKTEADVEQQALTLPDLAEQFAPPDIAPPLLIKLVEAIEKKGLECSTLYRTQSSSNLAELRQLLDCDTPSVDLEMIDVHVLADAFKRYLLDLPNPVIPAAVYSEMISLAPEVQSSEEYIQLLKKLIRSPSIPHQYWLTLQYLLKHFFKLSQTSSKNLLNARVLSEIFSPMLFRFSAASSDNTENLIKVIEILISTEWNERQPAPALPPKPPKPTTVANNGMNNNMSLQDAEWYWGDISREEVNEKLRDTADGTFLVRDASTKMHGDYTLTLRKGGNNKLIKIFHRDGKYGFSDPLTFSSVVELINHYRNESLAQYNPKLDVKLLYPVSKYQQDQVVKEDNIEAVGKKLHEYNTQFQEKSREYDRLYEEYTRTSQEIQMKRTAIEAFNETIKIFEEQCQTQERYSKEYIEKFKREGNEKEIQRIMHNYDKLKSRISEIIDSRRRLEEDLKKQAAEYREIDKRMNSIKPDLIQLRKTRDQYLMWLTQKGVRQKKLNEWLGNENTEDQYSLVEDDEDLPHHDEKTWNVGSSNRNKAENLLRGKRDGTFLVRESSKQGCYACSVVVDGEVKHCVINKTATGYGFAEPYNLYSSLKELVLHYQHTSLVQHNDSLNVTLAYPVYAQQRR
Chain of PI3Kγ (p110γ) (P48736 whole entry): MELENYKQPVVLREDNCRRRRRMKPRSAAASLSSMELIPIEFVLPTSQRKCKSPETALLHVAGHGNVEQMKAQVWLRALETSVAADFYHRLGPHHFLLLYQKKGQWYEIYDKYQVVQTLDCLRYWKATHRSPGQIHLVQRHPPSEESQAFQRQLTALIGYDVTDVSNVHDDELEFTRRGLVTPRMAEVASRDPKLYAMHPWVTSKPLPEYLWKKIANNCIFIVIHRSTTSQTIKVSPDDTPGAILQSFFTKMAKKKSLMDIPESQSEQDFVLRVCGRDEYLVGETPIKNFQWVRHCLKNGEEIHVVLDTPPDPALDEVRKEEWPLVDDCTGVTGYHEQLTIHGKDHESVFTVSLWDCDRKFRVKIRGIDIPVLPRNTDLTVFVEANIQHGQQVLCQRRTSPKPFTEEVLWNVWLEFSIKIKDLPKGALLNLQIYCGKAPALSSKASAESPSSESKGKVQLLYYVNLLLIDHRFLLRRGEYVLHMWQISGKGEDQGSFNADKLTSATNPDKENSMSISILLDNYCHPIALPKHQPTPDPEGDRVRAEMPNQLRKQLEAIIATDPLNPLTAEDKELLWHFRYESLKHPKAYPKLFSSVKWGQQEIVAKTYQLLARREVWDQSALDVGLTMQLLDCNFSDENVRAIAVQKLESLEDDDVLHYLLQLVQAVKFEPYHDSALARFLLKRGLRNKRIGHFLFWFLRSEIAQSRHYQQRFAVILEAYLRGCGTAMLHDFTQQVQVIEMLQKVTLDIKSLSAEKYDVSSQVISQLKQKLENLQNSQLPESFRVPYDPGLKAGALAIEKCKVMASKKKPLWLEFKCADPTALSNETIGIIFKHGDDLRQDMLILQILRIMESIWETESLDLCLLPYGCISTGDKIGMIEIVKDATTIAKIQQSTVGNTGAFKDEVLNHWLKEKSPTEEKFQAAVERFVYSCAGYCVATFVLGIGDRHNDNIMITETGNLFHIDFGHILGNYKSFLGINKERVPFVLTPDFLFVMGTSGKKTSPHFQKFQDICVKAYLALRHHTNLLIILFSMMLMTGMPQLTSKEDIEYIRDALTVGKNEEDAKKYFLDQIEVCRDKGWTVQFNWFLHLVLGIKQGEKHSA

| SMILES | IC50 (PI3Kγ (p110γ)) [nM] | IC50 (PI3Kδ (p110δ/p85α)) [nM] | IC50 [1, 2] [nM] | IC50 ([1]; THP-1, read-out: PI3Kγ_THP1_RPS6_ELISA IC50 (nM)) [nM] |
| --- | --- | --- | --- | --- |
| Cc1[nH]c(-c2cc(-c3cc4c(c(S(C)(=O)=O)c3)C(=O)N([C@@H](C)C3CC3)C4)ccn2)nc1C(=O)N(C)C1CCOCC1 [Example 7o, (S)-2-(4-(2-(1-Cyclopropylethyl)-7-(methylsulfonyl)-1-oxoisoindolin-5-yl)pyridin-2-yl)-N,4-dimethyl-N-(tetrahydro-2H-pyran-4-yl)-1H-imidazole-5-carboxamide, trifluoroacetate salt] | < 100 | 100 to 500 | 100 to 500 | – |
| Cc1nc(-c2cc(-c3cc4c(c(C(O)CO)c3)C(=O)N([C@@H](C)C3CC3)C4)ccn2)[nH]c1C (stereo partly drawn) [Example 18, 2-((S)-1-Cyclopropylethyl)-7-(1,2-dihydroxyethyl)-5-(2-(4,5-dimethyl-1H-imidazol-2-yl)pyridin-4-yl)isoindolin-1-one] | < 100 | > 2000 | 100 to 500 | – |
| Cc1[nH]c(-c2cc(-c3ccc4c(c3)CN([C@@H](C)C3CC3)C4=O)ccn2)nc1C(=O)NC1CCOCC1 [Example 4, (S)-2-(4-(2-(1-Cyclopropylethyl)-1-oxoisoindolin-5-yl)pyridin-2-yl)-5-methyl-N-(tetrahydro-2H-pyran-4-yl)-1H-imidazole-4-carboxamide trifluoroacetate salt] | < 100 | 500 to 2000 | > 1000 | – |
| Cc1[nH]c(-c2cc(-c3cc4c(c(S(C)(=O)=O)c3)C(=O)N([C@@H](C)C3CC3)C4)ccn2)nc1C(=O)NC12CC(C1)C2 [Example 7c, (S)-N-(Bicyclo[1.1.1]pentan-1-yl)-2-(4-(2-(1-cyclopropylethyl)-7-(methylsulfonyl)-1-oxoisoindolin-5-yl)pyridin-2-yl)-4-methyl-1H-imidazole-5-carboxamide, trifluoroacetate salt] | < 100 | 100 to 500 | > 1000 | – |
| Cc1[nH]c(-c2cc(-c3cc4c(c(S(C)(=O)=O)c3)C(=O)N([C@@H](C)C3CC3)C4)ccn2)nc1C(=O)NC12CCC(C#N)(C1)C2 [Example 7h, (S)-N-(4-Cyanobicyclo[2.1.1]hexan-1-yl)-2-(4-(2-(1-cyclopropylethyl)-7-(methylsulfonyl)-1-oxoisoindolin-5-yl)pyridin-2-yl)-4-methyl-1H-imidazole-5-carboxamide, trifluoroacetate salt] | < 100 | < 100 | 100 to 500 | – |
| C[C@@H](C1CC1)N1Cc2cc(-c3cnnc(-c4ccn[nH]4)c3)cc(S(C)(=O)=O)c2C1=O [Example 9, (S)-5-(6-(1H-Pyrazol-5-yl)pyridazin-4-yl)-2-(1-cyclopropylethyl)-7-(methylsulfonyl)isoindolin-1-one Trifluoroacetate Salt] | 100 to 500 | > 2000 | > 1000 | – |
| C[C@@H](C1CC1)N1Cc2cc(-c3ccnc(-c4ccn[nH]4)c3)cc(S(C)(=O)=O)c2C1=O [Example 15, (S)-5-(2-(1H-Pyrazol-5-yl)pyridin-4-yl)-2-(1-cyclopropylethyl)-7-(methylsulfonyl)isoindolin-1-one, trifluoroacetate salt] | < 100 | > 2000 | > 1000 | – |
| Cc1nc(-c2cc(-c3cc4c(c(S(C)(=N)=O)c3)C(=O)N([C@@H](C)C3CC3)C4)ccn2)[nH]c1C (single isomer, unassigned) [Example 22] | < 100 | 500 to 2000 | 500 to 1000 | – |
| Cc1cnc(-c2cc(-c3cc4c(c(N=S(C)(C)=O)c3)C(=O)N([C@@H](C)C3CC3)C4)ccn2)[nH]1 (single isomer, unassigned) [Example 26] | < 100 | > 2000 | > 1000 | – |
| Cc1[nH]c(-c2cc(-c3cc4c(c(S(C)(=O)=O)c3)C(=O)N([C@@H](C)C3CC3)C4)ccn2)nc1C(=O)N1CC(O)C1 [Example 7e, (S)-2-(1-Cyclopropylethyl)-5-(2-(5-(3-hydroxyazetidine-1-carbonyl)-4-methyl-1H-imidazol-2-yl)pyridin-4-yl)-7-(methylsulfonyl)isoindolin-1-one, trifluoroacetate salt] | < 100 | 100 to 500 | > 1000 | – |
| Cc1[nH]c(-c2cc(-c3cc4c(c(S(C)(=O)=O)c3)C(=O)N([C@@H](C)C3CC3)C4)ccn2)nc1C(=O)NC1CC2(COC2)C1 [Example 7i, (S)-2-(4-(2-(1-Cyclopropylethyl)-7-(methylsulfonyl)-1-oxoisoindolin-5-yl)pyridin-2-yl)-4-methyl-N-(2-oxaspiro[3.3]heptan-6-yl)-1H-imidazole-5-carboxamide, trifluoroacetate salt] | < 100 | < 100 | 100 to 500 | – |
| Cc1cnc(-c2cc(-c3cc4c(c(S(C)(=O)=O)c3)C(=O)N([C@@H](C)C3CC3)C4)ccn2)[nH]1 [Example 16, (S)-2-(1-Cyclopropylethyl)-5-(2-(5-methyl-1H-imidazol-2-yl)pyridin-4-yl)-7-(methylsulfonyl)isoindolin-1-one, Trifluoroacetate Salt] | < 100 | 500 to 2000 | < 100 | – |
| Cc1[nH]c(-c2cc(-c3cc4c(c(S(C)(=O)=O)c3)C(=O)N([C@@H](C)C3CC3)C4)ccn2)nc1C(=O)NC1CCC1 [Example 7k, (S)-N-Cyclobutyl-2-(4-(2-(1-cyclopropylethyl)-7-(methylsulfonyl)-1-oxoisoindolin-5-yl)pyridin-2-yl)-4-methyl-1H-imidazole-5-carboxamide, trifluoroacetate salt] | < 100 | 100 to 500 | 100 to 500 | – |
| Cc1[nH]c(-c2cc(-c3cc4c(c(S(C)(=O)=O)c3)C(=O)N([C@@H](C)C3CC3)C4)ccn2)nc1C(=O)NC(C)C [Example 7a, (S)-2-(4-(2-(1-Cyclopropylethyl)-7-(methylsulfonyl)-1-oxoisoindolin-5-yl)pyridin-2-yl)-N-isopropyl-4-methyl-1H-imidazole-5-carboxamide, trifluoroacetate salt] | < 100 | 100 to 500 | – | < 100 |
